Laboratory results: patent US7851589B2, “Polypeptide derived from the ryanodine receptor that inhibits calcium leakage” (Otsuka Pharmaceutical Co., Ltd., priority 2004, dated 2010)

Key:
[1] = test system: ischemic reperfusion injury; conditions: Hypertens. Res., 25: 303-9 (2002); cited from earlier work
[2] = test system: tachycardia-induced canine heart failure model; conditions: cited from earlier work
RyR2 = RyR2 (Canis lupus familiaris, UniProt A0A8I3MT21); conditions: cited from earlier work
Sequence of RyR2 (A0A8I3MT21 1-4967): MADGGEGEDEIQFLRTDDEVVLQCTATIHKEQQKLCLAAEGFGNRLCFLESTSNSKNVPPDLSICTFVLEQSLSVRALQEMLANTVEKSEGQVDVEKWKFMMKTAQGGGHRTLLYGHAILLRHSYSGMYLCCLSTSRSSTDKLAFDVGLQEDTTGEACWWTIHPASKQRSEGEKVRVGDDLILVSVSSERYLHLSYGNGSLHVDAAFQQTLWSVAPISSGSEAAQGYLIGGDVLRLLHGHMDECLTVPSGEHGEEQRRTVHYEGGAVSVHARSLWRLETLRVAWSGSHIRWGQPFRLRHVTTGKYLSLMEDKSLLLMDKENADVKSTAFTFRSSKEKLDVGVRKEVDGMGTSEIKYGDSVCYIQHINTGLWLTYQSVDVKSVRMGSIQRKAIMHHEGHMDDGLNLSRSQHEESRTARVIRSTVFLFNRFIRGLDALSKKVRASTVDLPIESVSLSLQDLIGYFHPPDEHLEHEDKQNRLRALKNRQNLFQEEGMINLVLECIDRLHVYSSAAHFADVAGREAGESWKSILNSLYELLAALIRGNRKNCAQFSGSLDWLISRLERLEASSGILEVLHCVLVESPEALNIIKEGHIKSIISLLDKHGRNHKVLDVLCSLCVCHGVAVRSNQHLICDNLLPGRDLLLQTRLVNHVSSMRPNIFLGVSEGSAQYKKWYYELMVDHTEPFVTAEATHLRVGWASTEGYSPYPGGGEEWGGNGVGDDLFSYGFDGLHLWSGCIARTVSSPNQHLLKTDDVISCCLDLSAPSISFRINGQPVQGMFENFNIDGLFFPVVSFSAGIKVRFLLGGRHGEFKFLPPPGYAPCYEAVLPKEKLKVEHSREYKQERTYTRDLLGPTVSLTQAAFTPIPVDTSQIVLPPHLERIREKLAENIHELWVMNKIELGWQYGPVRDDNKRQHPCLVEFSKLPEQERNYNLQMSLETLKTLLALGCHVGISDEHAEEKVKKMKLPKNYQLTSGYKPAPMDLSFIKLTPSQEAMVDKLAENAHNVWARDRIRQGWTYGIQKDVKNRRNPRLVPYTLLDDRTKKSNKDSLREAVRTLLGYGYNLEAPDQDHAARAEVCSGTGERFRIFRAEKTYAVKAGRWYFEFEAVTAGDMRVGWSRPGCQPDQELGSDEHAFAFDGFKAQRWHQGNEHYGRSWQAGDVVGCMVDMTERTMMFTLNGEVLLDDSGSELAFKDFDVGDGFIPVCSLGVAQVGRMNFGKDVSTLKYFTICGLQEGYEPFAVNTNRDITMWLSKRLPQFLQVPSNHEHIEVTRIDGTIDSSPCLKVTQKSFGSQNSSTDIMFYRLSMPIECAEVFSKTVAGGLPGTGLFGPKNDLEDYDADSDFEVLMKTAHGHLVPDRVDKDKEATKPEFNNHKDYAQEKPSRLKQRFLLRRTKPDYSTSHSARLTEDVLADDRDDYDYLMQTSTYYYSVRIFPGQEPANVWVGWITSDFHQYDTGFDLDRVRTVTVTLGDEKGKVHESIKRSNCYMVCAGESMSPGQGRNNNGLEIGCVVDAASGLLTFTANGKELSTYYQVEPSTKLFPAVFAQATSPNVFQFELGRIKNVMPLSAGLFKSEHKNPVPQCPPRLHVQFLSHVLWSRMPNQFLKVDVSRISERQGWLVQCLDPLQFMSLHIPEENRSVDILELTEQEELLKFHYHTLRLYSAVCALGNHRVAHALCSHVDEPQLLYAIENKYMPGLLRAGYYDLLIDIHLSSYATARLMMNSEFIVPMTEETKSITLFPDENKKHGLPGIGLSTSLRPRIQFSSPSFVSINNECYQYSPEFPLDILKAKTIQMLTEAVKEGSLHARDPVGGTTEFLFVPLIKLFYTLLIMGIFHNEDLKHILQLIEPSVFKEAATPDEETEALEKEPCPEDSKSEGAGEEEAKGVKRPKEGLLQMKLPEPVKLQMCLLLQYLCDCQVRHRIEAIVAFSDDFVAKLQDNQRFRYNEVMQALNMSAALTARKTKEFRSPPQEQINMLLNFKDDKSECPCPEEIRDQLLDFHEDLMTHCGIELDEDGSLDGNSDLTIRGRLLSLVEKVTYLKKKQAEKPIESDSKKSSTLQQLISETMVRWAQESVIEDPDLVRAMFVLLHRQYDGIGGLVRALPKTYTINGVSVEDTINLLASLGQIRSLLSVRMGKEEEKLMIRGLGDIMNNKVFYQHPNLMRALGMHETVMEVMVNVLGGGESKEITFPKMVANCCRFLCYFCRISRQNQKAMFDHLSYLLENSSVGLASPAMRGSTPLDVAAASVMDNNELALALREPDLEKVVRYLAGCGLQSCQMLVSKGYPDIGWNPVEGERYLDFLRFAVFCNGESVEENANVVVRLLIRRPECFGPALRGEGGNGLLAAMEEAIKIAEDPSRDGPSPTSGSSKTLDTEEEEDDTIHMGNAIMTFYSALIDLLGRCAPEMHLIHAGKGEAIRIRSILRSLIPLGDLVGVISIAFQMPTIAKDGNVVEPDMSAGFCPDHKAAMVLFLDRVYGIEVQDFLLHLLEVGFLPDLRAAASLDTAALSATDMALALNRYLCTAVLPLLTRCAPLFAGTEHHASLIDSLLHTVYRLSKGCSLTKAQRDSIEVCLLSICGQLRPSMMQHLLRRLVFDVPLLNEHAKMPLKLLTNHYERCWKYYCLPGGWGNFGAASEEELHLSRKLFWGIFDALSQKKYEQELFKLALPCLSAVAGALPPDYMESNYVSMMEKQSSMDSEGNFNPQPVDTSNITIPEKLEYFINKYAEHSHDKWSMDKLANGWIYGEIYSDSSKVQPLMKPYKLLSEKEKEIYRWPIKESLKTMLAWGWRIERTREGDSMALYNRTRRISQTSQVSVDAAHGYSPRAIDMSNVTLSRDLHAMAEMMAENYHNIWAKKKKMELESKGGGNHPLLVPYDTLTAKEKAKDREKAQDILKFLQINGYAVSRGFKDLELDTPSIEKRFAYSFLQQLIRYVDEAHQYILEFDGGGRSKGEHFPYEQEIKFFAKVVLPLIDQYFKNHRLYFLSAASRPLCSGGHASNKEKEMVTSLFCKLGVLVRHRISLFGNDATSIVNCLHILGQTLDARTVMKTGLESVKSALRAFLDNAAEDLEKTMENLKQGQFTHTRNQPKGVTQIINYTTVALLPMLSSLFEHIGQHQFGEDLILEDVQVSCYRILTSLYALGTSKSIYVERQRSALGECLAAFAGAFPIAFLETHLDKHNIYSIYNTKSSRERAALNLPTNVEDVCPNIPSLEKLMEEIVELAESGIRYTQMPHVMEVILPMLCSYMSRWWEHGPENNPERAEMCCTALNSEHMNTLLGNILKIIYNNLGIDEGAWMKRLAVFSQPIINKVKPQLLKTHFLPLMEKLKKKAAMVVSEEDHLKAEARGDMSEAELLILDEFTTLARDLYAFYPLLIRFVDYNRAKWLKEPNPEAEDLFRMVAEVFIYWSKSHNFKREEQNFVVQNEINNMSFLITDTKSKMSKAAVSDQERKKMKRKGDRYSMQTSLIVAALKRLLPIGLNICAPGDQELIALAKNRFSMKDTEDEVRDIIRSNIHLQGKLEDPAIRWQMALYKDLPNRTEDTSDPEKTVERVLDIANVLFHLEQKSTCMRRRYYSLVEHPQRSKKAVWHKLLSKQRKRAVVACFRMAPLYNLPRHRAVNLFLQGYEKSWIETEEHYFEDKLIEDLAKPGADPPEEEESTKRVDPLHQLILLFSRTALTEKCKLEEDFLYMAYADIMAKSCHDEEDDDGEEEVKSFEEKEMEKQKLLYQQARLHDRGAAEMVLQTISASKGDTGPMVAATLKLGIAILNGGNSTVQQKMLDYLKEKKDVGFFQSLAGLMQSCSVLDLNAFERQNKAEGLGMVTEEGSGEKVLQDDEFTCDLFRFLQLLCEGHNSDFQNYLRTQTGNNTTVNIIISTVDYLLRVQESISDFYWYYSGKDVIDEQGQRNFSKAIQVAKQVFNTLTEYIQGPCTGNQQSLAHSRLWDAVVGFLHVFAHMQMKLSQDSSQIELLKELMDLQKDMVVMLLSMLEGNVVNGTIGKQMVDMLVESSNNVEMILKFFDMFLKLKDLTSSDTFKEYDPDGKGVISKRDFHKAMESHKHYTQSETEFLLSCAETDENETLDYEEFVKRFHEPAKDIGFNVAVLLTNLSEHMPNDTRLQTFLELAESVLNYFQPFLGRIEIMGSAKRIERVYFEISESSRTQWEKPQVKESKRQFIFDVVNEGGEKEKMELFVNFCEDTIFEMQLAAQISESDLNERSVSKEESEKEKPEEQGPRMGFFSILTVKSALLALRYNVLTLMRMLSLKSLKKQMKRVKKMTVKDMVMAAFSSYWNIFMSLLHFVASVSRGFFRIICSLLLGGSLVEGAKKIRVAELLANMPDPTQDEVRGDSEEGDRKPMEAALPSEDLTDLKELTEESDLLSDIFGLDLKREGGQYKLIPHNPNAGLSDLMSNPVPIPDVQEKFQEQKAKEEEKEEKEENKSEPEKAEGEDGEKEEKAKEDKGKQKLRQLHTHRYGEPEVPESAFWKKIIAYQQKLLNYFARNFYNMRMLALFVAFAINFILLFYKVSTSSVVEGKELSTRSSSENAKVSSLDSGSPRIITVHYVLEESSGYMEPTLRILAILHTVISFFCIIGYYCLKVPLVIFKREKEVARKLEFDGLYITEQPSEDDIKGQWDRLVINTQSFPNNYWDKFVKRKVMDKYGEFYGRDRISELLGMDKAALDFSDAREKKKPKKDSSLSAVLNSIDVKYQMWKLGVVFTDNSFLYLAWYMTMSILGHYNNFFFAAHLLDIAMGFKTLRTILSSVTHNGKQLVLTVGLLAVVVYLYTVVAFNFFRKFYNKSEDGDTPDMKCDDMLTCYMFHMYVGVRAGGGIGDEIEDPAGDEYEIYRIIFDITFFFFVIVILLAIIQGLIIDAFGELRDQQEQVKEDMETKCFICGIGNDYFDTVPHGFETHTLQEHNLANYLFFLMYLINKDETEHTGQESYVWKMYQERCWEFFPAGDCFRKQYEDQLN

normal canine model = conditions: cited from earlier work
[3] = test system: neuron death during cerebral ischemia; conditions: Neurosci. Lett., 158: 105-108 (1993); cited from earlier work
ryanodine receptor = experiment: FK506-induced Ca2+ leakage in sarcoplasmic reticulum derived from canine myocardium (fluo 3 indicator); format: biochemical; conditions: for Ca2+ leakage inhibitory effect: 30 μM FK506 + 1 μM thapsigargin, value 20 seconds after addition, canine myocardial sarcoplasmic reticulum; for Ca2+ leakage inhibitory effect / Ca2+ leakage inhibitory activity compared with R2P: polypeptide 0.1, 0.3 or 1.0 μM
Procedure: Ca^2+ leakage inhibitory activity was measured through the method of Yano, M., et al. [Yano, et al., Circulation, 102, 2131-2136 (2000)].
Firstly, sarcoplasmic reticulum was prepared from canine myocardium through the method of Kranias, et al. [Kranias E., et al., Biochim. Biophys. Acta., 709, 28-37 (1982)].
Subsequently, the sarcoplasmic reticulum (0.2 mg/mL) was incubated in 0.5 mL of 20 mM MOPS buffer (pH 6.8) containing […] potassium gluconate, 0.2 mM EGTA-calcium buffer (free calcium: Ca^2+=0.3 μM), and 10 mM NaN3.
After the fluorescence value was maintained constant, 0.5 mM ATP (product of Sigma) and 0.5 mM magnesium chloride were added to the resultant mixture, to thereby initiate Ca^2+ uptake. The time course of Ca^2+ uptake was measured. Ca^2+ uptake was measured by means of fluo 3 (product of Molecular Probes) serving as a Ca^2+ indicator, and the fluorescence intensity at an excitation wavelength of 480 nm and an emission wavelength of 530 nm was measured by means of a fluorometer.
After Ca^2+ uptake reached a plateau, 1 μM thapsigargin (product of Wako Pure Chemical Industries, Ltd.) was added to thereby inhibit sarco(endo)plasmic reticulum Ca-ATPase (SERCA) activity for elimination of the influence of SERCA. The difference between the fluorescence value before addition of ATP and the fluorescence value at the time of completion of ATP-induced active Ca^2+ uptake (i.e., the fluorescence value at the time when Ca^2+ uptake reached a plateau) was taken as 100%.
Ca^2+ leakage induced by simultaneous addition of thapsigargin and 30 μM FK506 (product of Fujisawa Pharmaceutical Co., Ltd,), which was regarded as a control of Ca^2+ leakage induction, was measured by means of a Ca^2+ indicator.
A polypeptide obtained in (a) above (concentration: 0.1 μM, 0.3 μM, or 1.0 μM) and FK506 (30 μM/L) were added simultaneously with administration of thapsigargin, and the effect of inhibiting the thus-induced Ca^2+ leakage via ryanodine receptor was measured by means of a Ca^2+ indicator in a manner similar to that described above.
In each of these figures, the vertical axis corresponds to the value as measured 20 seconds after addition of thapsigargin, FK506, and a polypeptide. The value is the average of data of measurement performed twice or three times.

| Compound | Ca2+ leakage inhibitory effect (ryanodine receptor) | Ca2+ leakage inhibitory activity compared with R2P (ryanodine receptor; FK506-induced leakage) | also measured |
| --- | --- | --- | --- |
| COc1ccc2c(c1)CN(C(=O)CCN1CCC(Cc3ccccc3)CC1)CCS2 [JTV-519] | – | – | Effect on ischemic reperfusion injury [1]: effective for ischemic reperfusion injury; Effect on cardiac function [2]: exhibit the effect of improving cardiac function; Correction of abnormal Ca2+ leakage via RyR2 (RyR2; Non-Patent Document 9): corrects abnormal Ca^2+ leakage via RyR2; Inhibition of Ca2+ leakage from the sarcoplasmic reticulum of failing myocardium (RyR2; known property of the control): inhibit Ca^2+ leakage from the sarcoplasmic reticulum of failing myocardium in a concentration-dependent manner; Effect on cardiac function (normal canine model): exhibit no effect on cardiac function |
| O=C1CN(/N=C/c2ccc(-c3ccc([N+](=O)[O-])cc3)o2)C(O)=N1 [dantrolene] | – | – | Inhibition of neuron death during cerebral ischemia [3]: inhibit neuron death during cerebral ischemia |
| MSV-RP2: M+2112-2149; addition of methionine, serine and valine to the N-terminal of R2P (MSVEDTINLLASLGQIRSLLSVRMGKEEEKLMIRGLGDI) | exhibit Ca^2+ leakage inhibitory effect in a concentration-dependent manner | lower than that of R2P | – |
| R2JF: hRyR2 amino acid Nos. 2086-2133; SEQ ID NO: 14 peptide introduced to the N-terminal of RP1-20 (VLLHRQYDGIGGLVRALPKTYTINGVSVEDTINLLASLGQIRSLLSVR) | exhibit no Ca^2+ leakage inhibitory effect | – | – |
| R2P: 36 amino acids corresponding to positions 2114 to 2149 of human ryanodine receptor type 2 (hRyR2) (EDTINLLASLGQIRSLLSVRMGKEEEKLMIRGLGDI) | inhibits Ca^2+ leakage in a concentration-dependent manner | – | Ca2+ leakage inhibitory effect compared with control JTV519 (ryanodine receptor; 1.0 μM polypeptide vs 0.3 μM JTV519, FK506-induced leakage): comparable to that of 0.3 μM JTV519 |
| RP1-20: hRyR2 amino acid Nos. 2114-2133; deletion of 16 amino acids at the C-terminal of R2P (EDTINLLASLGQIRSLLSVR) | exhibit Ca^2+ leakage inhibitory effect in a concentration-dependent manner | lower than that of R2P | – |
| RP1-25: hRyR2 amino acid Nos. 2114-2138; deletion of 11 amino acids at the C-terminal of R2P (EDTINLLASLGQIRSLLSVRMGKEE) | exhibit Ca^2+ leakage inhibitory effect in a concentration-dependent manner | lower than that of R2P | – |
| RP1-30: hRyR2 amino acid Nos. 2114-2143; deletion of six amino acids at the C-terminal of R2P (EDTINLLASLGQIRSLLSVRMGKEEEKLMI) | exhibit Ca^2+ leakage inhibitory effect in a concentration-dependent manner | lower than that of R2P | – |
| RP13-32: hRyR2 amino acid Nos. 2126-2145; deletion of 12 N-terminal and four C-terminal amino acids of R2P (IRSLLSVRMGKEEEKLMIRG) | exhibit Ca^2+ leakage inhibitory effect in a concentration-dependent manner | lower than that of R2P | – |
| RP17-36: hRyR2 amino acid Nos. 2130-2149; deletion of 16 amino acids at the N-terminal of R2P (LSVRMGKEEEKLMIRGLGDI) | exhibit Ca^2+ leakage inhibitory effect in a concentration-dependent manner | lower than that of R2P | – |
| SEQ ID NO: 14: hRyR2 amino acid Nos. 2086-2113 (VLLHRQYDGIGGLVRALPKTYTINGVSV) | having no Ca^2+ leakage inhibitory effect | – | – |
